Results reported in US20140094424A1, “MICROBICIDAL COMPOSITIONS AND METHODS OF PRODUCTION USE THEREOF” (priority 2011, published 2014).

Experiments:
[1] = tested on: Penicillium notatum-KMO (R); assay: MBC (minimum bactericidal concentration) test in Wash NEXT reagent; format: cell-based; conditions: for total kill at % preservative (MBC): at 14 days
Protocol: (§1) The stock organisms were thawed and subbed prior to beginning the MBC test. Molds were subbed to SDA plates one week before, and the bacteria were subbed to TAT agar plates 24 hours prior to the start of the test. All plates were incubated at 32 degrees C.
For the molds, each organism was inoculated into 40 ml sterile saline in a centrifuge tube to create a density of MacFarland #5. Two serial dilutions of 1:100 were then made, resulting in 10^−2 and 10^−4 concentrations. Each dilution was vortexed before it was sampled, and sterile Eppendorf pipette tips were used to make each transfer. The 10^−4 dilution was spiral plated to yield the initial inoculum concentration.
(§2) MBC trays were set up with the prepared test reagent. Using a Matrix pipettor, 100 μl aliquots of reagent were distributed into the wells, diluting the amount of preservative from 100% to 10% increments, using unpreserved reagent as the diluent. In one row, 100% non-preserved reagent acted as a positive control and served as a benchmark for a full mat of growth. In well #12H, 100 μl unpreserved reagent was pipetted, and this well was not inoculated with organisms, as it served as the negative control. Once all of the trays were prepared, the prepared bacteria/mold suspensions were poured into the MBC inoculating trays. These were placed onto the reagent trays, and 0.01 ml inoculum was introduced into the 100 μl of reagent in each well.
(§3) This was done by dipping a sterile cotton swab into each well, and absorbing all of the liquid in the well. The swab was rolled onto a TAT agar plate ensuring that the entire swab touches the agar. Plates ware incubated at 32 degrees C. for 48 hours to 7 days, depending on the organism. Observations for growth were performed by a scoring matrix using + for a full mat, +/− for some growth, a numerical value for an actual colony count, and—for no growth.
(§4) Below are tables that contain the data obtained in Example 1. The MBC test is scored by (+) indicating a full grown mat of organisms, equivalent to the organisms in the unpreserved reagent. (+/−) indicates there is some kill evident disturbing that mat or bringing the quantities down to an almost countable level. An actual number is the actual number of colonies growing at that concentration of preservative. (−) indicates no growth found. The MBC trays were stored at room temperature for the entire test.
(§5) The materials and methods and analysis of the MBC test were the same as in Example 1.

[2] = tested on: Pseudomonas aeruginosa (AY); assay: as above; format: cell-based
Protocol: as §1
Each bacterial organism was inoculated into 40 ml sterile saline in a centrifuge tube to create a density of MacFarland #1. Two serial dilutions of 1:100 were then made, resulting in 10^−2 and 10^−4 concentrations. Each dilution was vortexed before it was sampled, and sterile Eppendorf pipette tips were used to make each transfer. The 10^−4 dilution was spiral plated to yield the initial inoculum concentration.
as §2, §3, §4, §5

**Q.** What does the source list for [N-]=[N+]=[N-] [Sodium Azide, sodium azide]?
**A.** growth ([1]; 10%, 8 hour): +; growth ([1]; 10%, 24 hour): +; growth ([1]; 10%, 48 hour): +/−; growth (number of organisms counted) ([1]; 10%, 72 hour): 24; growth (number of organisms counted) ([1]; 10%, 7 day): 20; growth (number of organisms counted) ([1]; 10%, 14 day): 14; growth ([1]; 20%, 8 hour): +; growth ([1]; 20%, 24 hour): +; growth ([1]; 20%, 48 hour): +/−; growth (number of organisms counted) ([1]; 20%, 72 hour): 22; growth (number of organisms counted) ([1]; 20%, 7 day): 19; growth (number of organisms counted) ([1]; 20%, 14 day): 11; growth ([1]; 30%, 8 hour): +; growth ([1]; 30%, 24 hour): +; growth ([1]; 30%, 48 hour): +/−; growth (number of organisms counted) ([1]; 30%, 72 hour): 22; growth (number of organisms counted) ([1]; 30%, 7 day): 19; growth (number of organisms counted) ([1]; 30%, 14 day): 8; growth ([1]; 40%, 8 hour): +; growth ([1]; 40%, 24 hour): +; growth ([1]; 40%, 48 hour): +/−; growth (number of organisms counted) ([1]; 40%, 72 hour): 18; growth (number of organisms counted) ([1]; 40%, 7 day): 15; growth (number of organisms counted) ([1]; 40%, 14 day): 6; growth ([1]; 50%, 8 hour): +; growth ([1]; 50%, 24 hour): +; growth ([1]; 50%, 48 hour): +/−; growth (number of organisms counted) ([1]; 50%, 72 hour): 15; growth (number of organisms counted) ([1]; 50%, 7 day): 12; growth ([1]; 50%, 14 day): −; growth ([1]; 60%, 8 hour): +; growth ([1]; 60%, 24 hour): +; growth ([1]; 60%, 48 hour): +/−; growth (number of organisms counted) ([1]; 60%, 72 hour): 13; growth (number of organisms counted) ([1]; 60%, 7 day): 10; growth ([1]; 60%, 14 day): −; growth ([1]; 70%, 8 hour): +; growth ([1]; 70%, 24 hour): +; growth ([1]; 70%, 48 hour): +/−; growth (number of organisms counted) ([1]; 70%, 72 hour): 11; growth (number of organisms counted) ([1]; 70%, 7 day): 9; growth ([1]; 70%, 14 day): −; growth ([1]; 80%, 8 hour): +; growth ([1]; 80%, 24 hour): +; growth ([1]; 80%, 48 hour): +/−; growth (number of organisms counted) ([1]; 80%, 72 hour): 9; growth (number of organisms counted) ([1]; 80%, 7 day): 6; growth ([1]; 80%, 14 day): −; growth ([1]; 90%, 8 hour): +; growth ([1]; 90%, 24 hour): +; growth ([1]; 90%, 48 hour): +/−; growth (number of organisms counted) ([1]; 90%, 72 hour): 7; growth (number of organisms counted) ([1]; 90%, 7 day): 4; growth ([1]; 90%, 14 day): −; growth ([1]; 100%, 8 hour): +; growth ([1]; 100%, 24 hour): +; growth ([1]; 100%, 48 hour): +/−; growth (number of organisms counted) ([1]; 100%, 72 hour): 6; growth (number of organisms counted) ([1]; 100%, 7 day): 3; growth ([1]; 100%, 14 day): −; total kill at % preservative (MBC) [1]: had total kill at 50% preservative at 14; total kill at % preservative (MBC) ([1]; listed as Na Azide): Total kill @ 50%; MBC test growth score ([2]; 10% preservative, 8 hour): +; MBC test growth score ([2]; 10% preservative, 24 hour): +; MBC test growth score ([2]; 10% preservative, 48 hour): +; MBC test growth score ([2]; 10% preservative, 72 hour): +; MBC test growth score ([2]; 20% preservative, 8 hour): +; MBC test growth score ([2]; 20% preservative, 24 hour): +; MBC test growth score ([2]; 20% preservative, 48 hour): +; MBC test growth score ([2]; 20% preservative, 72 hour): +; MBC test growth score ([2]; 30% preservative, 8 hour): +; MBC test growth score ([2]; 30% preservative, 24 hour): +; MBC test growth score ([2]; 30% preservative, 48 hour): +; MBC test growth score ([2]; 30% preservative, 72 hour): +; MBC test growth score ([2]; 40% preservative, 8 hour): +; MBC test growth score ([2]; 40% preservative, 24 hour): +; MBC test growth score ([2]; 40% preservative, 48 hour): +; MBC test growth score ([2]; 40% preservative, 72 hour): +; MBC test growth score ([2]; 50% preservative, 8 hour): +; MBC test growth score ([2]; 50% preservative, 24 hour): +; MBC test growth score ([2]; 50% preservative, 48 hour): +; MBC test growth score ([2]; 50% preservative, 72 hour): +; MBC test growth score ([2]; 60% preservative, 8 hour): +; MBC test growth score ([2]; 60% preservative, 24 hour): +; MBC test growth score ([2]; 60% preservative, 48 hour): +; MBC test growth score ([2]; 60% preservative, 72 hour): +; MBC test growth score ([2]; 70% preservative, 8 hour): +; MBC test growth score ([2]; 70% preservative, 24 hour): +; MBC test growth score ([2]; 70% preservative, 48 hour): +; MBC test growth score ([2]; 70% preservative, 72 hour): +; MBC test growth score ([2]; 80% preservative, 8 hour): +; MBC test growth score ([2]; 80% preservative, 24 hour): +; MBC test growth score ([2]; 80% preservative, 48 hour): +; MBC test growth score ([2]; 80% preservative, 72 hour): +; MBC test growth score ([2]; 90% preservative, 8 hour): +; MBC test growth score ([2]; 90% preservative, 24 hour): +; MBC test growth score ([2]; 90% preservative, 48 hour): +; MBC test growth score ([2]; 90% preservative, 72 hour): +; MBC test growth score ([2]; 100% preservative, 8 hour): +; MBC test growth score ([2]; 100% preservative, 24 hour): +; MBC test growth score ([2]; 100% preservative, 48 hour): +; MBC test growth score ([2]; 100% preservative, 72 hour): +; total kill at % preservative (MBC) ([2]; at 72 hours, listed as Na Azide): No kill @ 100%
